Measurements: patent US9782379B2, “Use of protectin DX for the stimulation of muscular IL-6 secretion” (Universite Laval, priority 2013, dated 2017)

Assays:
[1] = test system: J774A.1 murine macrophages; experiment: macrophages treated with palmitate in vitro; assay type: cell-based; settings: 400 μM palmitate, 16 hours
Procedure: J774A.1 murine macrophages were maintained in DMEM (10% FBS) until 80% confluence. A 2 mM palmitate solution or methanol vehicle in alpha-MEM (12% BSA) was added to fresh DMEM (10% FBS) to give a final concentration of 400 μM palmitate. Concomitantly, PDX, RvE1, RvD1 (10 or 100 nM, Cayman chemical), or vehicle was added to the media. After 16 hours, the media was collected and cells were lysed as described for the studies in C2C12 myotubes.
(§1) Snap frozen gastrocnemius muscle and liver from mice were pulverized in liquid nitrogen then lysed overnight at 4° C. in the lysis buffer described for the C2C12 myotube experiments. Immunoblotting of myotube, macrophage, liver and muscle lysates was then performed as previously described^5. Briefly, 50 ug of protein was loaded onto a 7.5% acrylamide gel, subjected to SDS-PAGE then transferred onto nitrocellulose membranes. Membranes were then blocked and probed with the appropriate antibodies. Antibodies for p-Akt ser473, p-JNK thr183/tyr185, JNK, p-AMPK thr172, AMPK, p-STAT-3 ser727 and STAT-3 were obtained from Cell Signaling Technology (MA, USA). Antibodies for total Akt and iNOS were from Santa Cruz Biotechnology (CA, USA) and BD Transduction Laboratories™ (Canada) respectively.
(§2) Chemokines and cytokines were quantified in macrophage media, or mouse plasma using the MILLIPLEX™ MAP mouse cytokine/chemokine kit (Millipore Corporation, MA, USA). Nitrite accumulation in media was determined by Greiss assay as previously described^25. Plasma insulin levels were assessed by RIA (Linco, MI, USA). FFA were measured using an enzymatic colorimetric assay (Wako Chemicals, VA, USA). Skeletal muscle and liver IL-6 were quantified using the mouse IL-6 ELISA kit from R&D systems. Total plasma adiponectin was determined using the ELISA from ALPCO.

C2C12 myotubes = experiment: IL-6 expression and release and AMPK phosphorylation in cultured C2C12 myotubes; assay type: cell-based
Procedure: C2C12 myoblasts were maintained in DMEM containing 10% FBS. Differentiation to myotubes was initiated by addition of DMEM containing 2% horse serum. The experiment was conducted 5 days after the addition of the differentiation media. Immediately prior to the commencement of experiments fresh media was added to the cells. Then vehicle or PDX (10, 100, and 1000 nM) was added to the appropriate wells. 30 and 120 minutes after the addition of PDX media was collected and frozen for IL-6 quantification and cells were washed in ice cold PBS. For extraction of mRNA cells were then lysed and scraped in 300 μl of RLT buffer (QIAGEN). For examination of AMPK activity cells were lysed and scraped in 200 μl of ice cold lysis buffer containing 50 mM HEPES pH7.5, 150 mM NaCl, 1 mM EGTA, 20 mM b-glycerophosphate, 1% NP40, 10 mM NaF, 2 mM Na3VO4, 1× protease inhibitor cocktail (Sigma).
as §1
(§3) RNA was extracted from C2C12 myotubes using an RNeasy® mini kit from QIAGEN. RNA from homogenized liver tissue was extracted using an RNeasy® fibrous tissue mini kit from QIAGEN. RNA was then reverse transcribed to cDNA using the high-capacity cDNA reverse transcription kit from applied biosystems. Real-time PCR for Ppargc1, Pck1, G6Pc, and GAPDH was then performed using Taqman assay on demand probes and primers from Applied Biosystems in a CFX96 real-time system from BIO-RAD. The relative expression of genes of interest was then determined by normalization to the housekeeping gene GAPDH using the comparative CT method for relative gene expression^30.
as §2

lean C57BL/6J mice = experiment: paired 6 h lipid infusion and 4 mU/kg hyperinsulinemic-euglycemic clamp; assay type: in vivo
Procedure: 14-week old male C57BL/6J mice from Jackson Labs were used for the first paired lipid infusion hyperinsulinemic-euglycemic clamp study. These mice were placed on a standard laboratory chow diet with free access to food and water and kept in a 12 h light 12 h dark cycle at the Laval University hospital research centre animal facility. Mice were randomly assigned to saline, lipid or lipid+PDX groups. Five days prior to the experiment, mice were anesthetized and PE-10 catheters (Harvard Apparatus, QC, Canada) were inserted into the left common carotid artery and the right jugular vein for blood sampling and infusions respectively. Mice were fasted for 5 h leading up to the protocol. Immediately prior to the start of the lipid infusion, PDX (1 ug) or an equal volume of vehicle was administered via the jugular catheter to each group. Mice were then infused for 6 h with saline (5ml·kg^−1·h^−1) or lipid (20% intralipid emulsion (Baxter, ON, Canada) 5ml·kg^−1·h^−1 with 20 IU·ml^−1 heparin (LEO pharma, ON, Canada)). 2.5h into the infusion PDX (1 ug) or vehicle was again administered to the appropriate groups and the HIE clamp was initiated as previously described ^8,27. The clamp protocol consisted of a 90 min tracer equilibration period followed by a 120 min experimental period. A 5-μCi bolus of [3-^3H]glucose was given at the start of the tracer equilibration period followed by a 0.05-μCi/min infusion for 90 min. Blood samples were drawn for the assessment of glycemia, insulin and glucose turnover levels. Following the 90 min tracer equilibration period the clamp began with a primed-continuous infusion of human insulin (16 mU/kg bolus followed by 4 mU·kg^−1·min^−1, Humulin R; Eli Lilly, Indianapolis, Ind.). The [3-^3H]glucose infusion was increased to 0.2 μCi/min for the remainder of the experiment. Euglycemia (6.0-7.0 mM) was maintained during clamps by infusing 20% dextrose as necessary. Blood samples were taken continuously to determine glucose specific activity as well as insulin concentrations. Mice received saline-washed erythrocytes from donor mice throughout the experimental period (5-6 μl·min-1) to prevent a fall of ≧5% hematocrit. HGP and Rd were determined using Mari's non-steady-state equations for a two-compartmental model^28.
as §1, §3
Chemokines and cytokines were quantified in macrophage media, or mouse plasma using the MILLIPLEX™ MAP mouse cytokine/chemokine kit (Millipore Corporation, MA, USA). Nitrite accumulation in media was determined by Greiss assay as previously described^25. […]

[2] = highest dose, within 2 h, P<0.01

CC/C=C\C[C@H](O)/C=C/C=C\C=C\[C@@H](O)C/C=C\C/C=C\CCC(=O)O [PDX, 10S,17S-dihydroxy-docosa-4Z,7Z,11E,13Z,15E,19Z-hexaeonic acid]
iNOS and JNK activation [1]: effectively suppresses
lipid-induced IL-6 production [1]: actually suppresses
lipid-induced secretion of CCL2/MCP-1, CCL5/RANTES, TNFα, IL-2, and IL-10 ([1]; PDX 10 or 100 nM): effectively suppresses
IL-6 release from muscle cells (C2C12 myotubes; 100 nM of each lipid mediator vs vehicle): prompted IL-6 release
AMPK phosphorylation (C2C12 myotubes; 30 minutes): promotes AMPK phosphorylation
IL-6 release in the media (C2C12 myotubes; 30 minutes): no IL-6 release can be detected
phosphorylation of AMPK (C2C12 myotubes; 2 h, P<0.05): detected
increase in IL-6 mRNA expression (C2C12 myotubes; [2]): more than 2 fold
increase in IL-6 secretion (accumulation in media) (C2C12 myotubes; [2]): more than 2 fold
phosphorylation of AMPK on Thr172 in muscle (lean C57BL/6J mice; P<0.05): robust phosphorylation
phosphorylation of hepatic STAT-3 on Ser727 (lean C57BL/6J mice; P<0.05): enhancing
pre-clamp glycemia (lean C57BL/6J mice; PDX 1 ug i.v. immediately prior to and 2.5 h into 6 h lipid infusion, vs saline and lipid-treated animals, P<0.01): significant lowering
peripheral insulin action (lean C57BL/6J mice; PDX 1 ug i.v. x2, lipid-infused): partial restoration
lipid-induced decline in whole-body insulin sensitivity (glucose infusion rate, GIR) (lean C57BL/6J mice; PDX 1 ug i.v. x2, lipid-infused, P<0.001): completely prevented the lipid-induced decline
hepatic insulin action (lean C57BL/6J mice; PDX 1 ug i.v. x2, lipid-infused, significantly greater than saline-infused mice, P<0.05): markedly increased
adiponectin in plasma (lean C57BL/6J mice; both lipid-infused groups (with and without PDX)): similarly reduced levels
IL-6 protein expression in skeletal muscle (lean C57BL/6J mice; expression profile compared with plasma IL-6): closely resembled that of plasma
phosphorylation of Akt on Ser473 (lean C57BL/6J mice; liver and skeletal muscle, immunoblot): confirmed the improved insulin action
JNK activation (phosphorylation on Thr183/Tyr185) (lean C57BL/6J mice; liver, immunoblot): prevents
liver IL-6 levels (lean C57BL/6J mice; mouse, in vivo): no significant effect
suppression of PGC-1α and PEPCK in liver (mRNA) (lean C57BL/6J mice; mouse, in vivo): enhancing
lipid-mediated induction of iNOS (lean C57BL/6J mice; muscle and liver, immunoblot): represses
lipid-induced secretion of cytokines TNFα, IFNγ, IL-1β, IL-2 and IL-17 (lean C57BL/6J mice; plasma, lipid-infused): strongly suppresses
lipid-induced secretion of proinflammatory chemokines CCL2/MCP-1 and CCL5/RANTES (lean C57BL/6J mice; plasma, lipid-infused): strongly suppresses
increase in IL-6 beyond that induced by lipid infusion alone (lean C57BL/6J mice; plasma, P<0.001): ~7 fold
suppression of G6Pase in liver (mRNA) (lean C57BL/6J mice; tendency, P=0.08): did not reach significance
